Measurements from US6552066B1, “Protein tyrosine kinase inhibitors for treating osteoarthritis” (priority 1995, dated 2003).
One block for each molecule: values may come before it.

What was measured:
[1] = system: aggrecanase cleavage of aggrecan (230K fragment); test: Aggrecanase neoepitope in IL-1-stimulated chondrocytes, BC-3 antibody immunoblot; type: cell-based, bovine
Protocol: (§1) Primary bovine articular chondrocytes from calf adio-carpal joints were isolated and cultured as above in Example 1, up to and including the addition of the following protein kinase inhibitors: 1) Protein kinase A (PKA) inhibitors; 0.5 μM H88 (Seikagaku Corp.), 0.5 μM H89 (Seikagaku Corp.); 2) Protein kinase C (PKC) inhibitors; 0.5 μM Calphostin C (Calbiochem), 1.0 μM Chelerythrine (Calbiochem); 3) CA^2+/Calmodulin Kinase II inhibitor; 5.0 μM KN93 (Seikagaku Corp.); 4) Protein tyrosine kinase (PTK) inhibitors; 50 μM Genistein (Calbiochem), 10 μM Herbimycin A (Calbiochem). After the 24 hour IL-1α incubation, the media of each sample was measured, and collected on ice in the presence of the protease inhibitors EGTA (5 mM), Pefaloc (1 mM), pepstatin (1 μg/ml), and NEM (5 mM). Media were concentrated approximately 40 fold using a Centriprep-10 ultrafiltration device (Amicon).
(§2) Proteoglycans contained within the media were deglycosylated by incubations with chondroitinase ABC, keratinase, and keratinase II following the procedure of Sandy et al. J Biol Chem (1991) 266:8683-8685 and Sandy et al. J. Clin Invest (1992) 89:1512-1516. Samples of deglycosylated media were subjected to 4-15% gradient SDS-PAGE and transferred to nitrocellulose membranes (2 ml-worth and 6 ml-worth of media were used for 2-B-6 and BC-3 immunoblotting, respectively.) The membranes were blocked with 1% nonfat dry milk and 1% BSA, and then incubated in either the BC-3 or 2-B-6 primary monoclonal antibody for 1 hour. The 2-B-6 antibody detects chondroitin sulfate stubs on chondroitinase-treated proteoglycans (both intact and degradation products. BC-3 antibody detects “ARGSV . . . ,” the new N-terminus (“neoepitope”) resulting from cleavage of aggrecan interglobular domain at Glu^373/ALA^374 by aggrecanase. It is of note to mention that the BC-3 and 2-B-6 antibodies were of low sensitivity. Following 3 washes, membranes were incubated in either alkaline phosphatase-conjugated goat anti-mouse (for the 2-B-6 blot) or biotinylated goat anti-mouse (for the BC-3 blot); followed by alkaline phosphatase-conjugated streptavidin/biotin complex). After washing 3 times, immunoreactive proteins were detected using NBT/BCIP (Sigma) colorimetric substrate.

stromelysin mRNA = test: Northern blot of IL-1-induced stromelysin mRNA in primary bovine chondrocytes; type: cell-based; conditions: 2 h preincubation, IL-1α 1 ng/ml 24 hours
Protocol: The isolation of cartilage and the enzymatic degradation of cartilage was carried out as described in Example 1.
Chondrocytes were recovered by addition of an equal volume of DMEM/F12 supplemented with 10% fetal bovine serum (FBS) to neutralize enzymes, filtration through a 70μm nylon Cell Strainer (Falcon), and centrifugation at 1000×g for ten minutes at room temperature. Chondrocytes were seeded in T-150 plates at 5×10^4 cells/cm^2 using 1:1 DMEM/F12, 10% FBS, 1% antibiotic solution (penicillin, streptomycin, fungizone: GIBCO/BRL), and incubated at 37° C., 5% CO2. Cells were refed with DMEM/F12 plus 10% FBS on days 4, 7, and 10. On day 11, test cultures (except for the+interleukin 1α control) were rinsed in phosphate buffered saline (PBS), and preincubated for 2 hours with 5 ml of serum-free DMEM/F12 containing one of the following protein kinase inhibitors:
1) Protein kinase A (PKA) inhibitors; 0.5 μM H88 (Seikagaku Corp.), 0.5 μMH89 (Seikagaku Corp.); 2) Protein kinase G (PKG) and PKA inhibitor; 5.0 μM H89; 3) Protein kinase C. (PKC) inhibitors; 0.5 μM Calphostin C (Calbiochem), 1.0 μM chelerythrine (Calbiochem); 4) CA^2+/Calmodulin Kinase II inhibitor; 5.0 μM KN93 (Seikagaku Corp.); 5) Protein tyrosine kinase (PTK) inhibitors; 50 μM Genistein (Calbiochem), 10 μM Herbimycin A (Calbiochem), 50 μM Tyrphostin A25 (AG 82) (Calbiochem), 50 μm Tyrphostin AG 126 (Calbiochem), 50 μM Tyrphostin B56 (AG 556) (Calbiochem), 20 μM DAPH (Calbiochem).
Recombinant human interleukin 1 α (IL-1α) (R & D Systems) at 1 ng/ml was then added to all cultures (except the IL-1α control) for 24 hours in serum-free DMEM/F12 containing 1% antibiotic solution.
RNA on the Northern blot was fixed to the membrane by baking at 80° C. for 30 minutes.
Prehybridization (1.5 hours) and hybridization (overnight) of the Northern blot with the radioactive probes were performed in 50% formamide, 1×GIBCO/BRL hybridization solution, 0.1% SDS, and 10mM monobasic sodium phosphate, at 42° C. The blot was successively washed two times in 1×SSC/0.1% SDS (15 minutes/wash at room temperature), and two times in 0.2×SSC/0.1% SDS (30 minutes/wash at 55° C.). The blot was allowed to air dry, and was exposed to X-ray film, with intensifying screen, overnight at −70° C.

[2] = system: aggrecanase activity in bovine cartilage explants; test: Bovine cartilage explant assay without added plasminogen (IL-1-induced aggrecanase degradation); type: cell-based; conditions: no added plasminogen
Description: The assay described in Example 2 can be carried out with and without added plasminogen. With plasminogen, the active forms of the metalloproteinases (MMPs) and plasmin were generated. It is believed that MMPs, “aggrecanase” and plasmin degraded the cartilage explant in this assay. […] Therefore, in the absence of plasminogen, cartilage degradation occurred primarily as a result of “aggrecanase” activity.

[3] = system: IL-1-induced aggrecan degradation; test: Aggrecan degradation in IL-1-stimulated chondrocytes, 2-B-6 antibody immunoblot; type: cell-based, bovine; conditions: for intensity of staining (total amount of PG fragments), 2-B-6: relative to PKA, PKC and calmodulin-dependent kinase inhibitor samples
Protocol: as §1, §2
The 2-B-6 antibody detected intact aggrecan (the uppermost band) and several aggrecan degradation products, along with decorin and biglycan (50K doublet), in the IL-1-treated media samples. […] The bands in the IL-1 sample that are seen at 230K, 200K, 130K and 100K have been previously identified by sequence analysis to result from IL-1-induced “aggrecanase” cleavage.
A repeat of the Western immunoblotting experiment using 2-B-6 antibodies was performed. Furthermore, additional inhibitors from four enzyme families were examined: 1) Protein tyrosine kinase (PTK) inhibitors; 1 μM Tryphostin AG 1296 (Calbiochem), 50 μM Tyrphostin A25 (AG 82) (Calbiochem), 50 μM Tyrphostin AG 126 (Calbiochem), 50 μM Tyrphostin B56 (AG 556) (Calbiochem), 20 μM DAPH (Calbiochem); 2) Guanylate cyclase inhibitor; 10 μM LY-83583 (Calbiochem); 3) Casein kinase I inhibitor; 20 μM CKI-7 (Seikagaku Corp.); and 4) Protein kinase G (PKG) and PKA inhibitor; 5.0 μM H89.

- BC-3 immunoreactive band at approximately 230K (aggrecanase-mediated fragment) ([1]; 50 μM): not present
SMILES: O=c1c(-c2ccc(O)cc2)coc2cc(O)cc(O)c12 [Genistein]
- inhibition of IL-1-induced upregulation of stromelysin mRNA levels (stromelysin mRNA; 50 μM): Total inhibition
- inhibition at 50 µM ([2]; Bos taurus, 50 μM, read-out: inhibition of release of 35S-labelled proteoglycan): 37%
- level of the 230K aggrecan degradation product, 2-B-6 ([3]; 50 μM): significantly reduce
- levels of the uppermost band (intact aggrecan), 2-B-6 ([3]; 50 μM): increased
- intensity of staining (total amount of PG fragments), 2-B-6 ([3]; 50 μM): reduced
- inhibition of IL-1-induced aggrecan degradation, 2-B-6 ([3]; 50 μM, repeat experiment): partial inhibition

SMILES: N#C/C(=C\c1ccc(O)c(O)c1)C(=O)NCCCCc1ccccc1 [Tyrphostin AG 556]
- inhibition of IL-1-induced upregulation of stromelysin mRNA levels (stromelysin mRNA; 50 μM): Total inhibition
- inhibition of IL-1-induced aggrecan degradation, 2-B-6 ([3]; 50 μM, repeat experiment): 100%

SMILES: N#CC(C#N)=Cc1ccc([N+](=O)[O-])c(O)c1 [Tyrphostin AG 126]
- inhibition of IL-1-induced upregulation of stromelysin mRNA levels (stromelysin mRNA; 50 μM): no effect
- inhibition of release of 35S-labelled proteoglycan ([2]; 50 μM): no effect
- inhibition of IL-1-induced aggrecan degradation, 2-B-6 ([3]; 50 μM, repeat experiment): no inhibitory effect

- BC-3 immunoreactive band at approximately 230K (aggrecanase-mediated fragment) ([1]; 10 μM): not present
SMILES: CO[C@H]1[C@@H](OC)C[C@H](C)[C@@H](OC)C2=CC(=O)C=C(NC(=O)/C(C)=C/C=C\[C@H](OC)[C@@H](OC(N)=O)/C(C)=C/[C@@H]1C)C2=O [Herbimycin A]
- inhibition of IL-1-induced upregulation of stromelysin mRNA levels (stromelysin mRNA; 10 μM): Total inhibition
- inhibition at 0.25 µM ([2]; Bos taurus, 0.25 μM, read-out: inhibition of release of 35S-labelled proteoglycan): 55%
- inhibition at 0.5 µM ([2]; Bos taurus, 0.5 μM, read-out: inhibition of release of 35S-labelled proteoglycan): 63%
- inhibition at 1 µM ([2]; Bos taurus, 1 μM, read-out: inhibition of release of 35S-labelled proteoglycan): 78%
- level of the 230K aggrecan degradation product, 2-B-6 ([3]; 10 μM): significantly reduce
- levels of the uppermost band (intact aggrecan), 2-B-6 ([3]; 10 μM): increased
- intensity of staining (total amount of PG fragments), 2-B-6 ([3]; 10 μM): reduced
- inhibition at 10 µM ([3]; Bos taurus, Chondrocyte, 10 μM, repeat experiment): ~100%

SMILES: N#CC(C#N)=Cc1cc(O)c(O)c(O)c1 [Tyrphostin AG 82]
- inhibition of IL-1-induced upregulation of stromelysin mRNA levels (stromelysin mRNA; 50 μM): no effect
- inhibition of release of 35S-labelled proteoglycan ([2]; 50 μM): 31%
- inhibition of IL-1-induced aggrecan degradation, 2-B-6 ([3]; 50 μM, repeat experiment): moderate inhibition

SMILES: O=C1NC(=O)c2cc(Nc3ccccc3)c(Nc3ccccc3)cc21 [DAPH, 4,5-dianilinophthalimide]
- inhibition of IL-1-induced upregulation of stromelysin mRNA levels (stromelysin mRNA; 20 μM): Total inhibition
- inhibition of IL-1-induced aggrecan degradation, 2-B-6 ([3]; 20 μM, repeat experiment): moderately strong inhibition
